Patent US20150343007A1, “EDIBLE COMPOSITION COMPRISING AN EXTRACT OF INULA RACEMOSA AND NARINGIN” (CONOPCO, INC. D/B/A UNILEVER, priority 2012, published 2015)

The molecules below were run against T1, human recombinant Dipeptidyl peptidase-IV (DPP-IV) enzyme (Homo sapiens, UniProt P27487) (assay: Invitro DPP-4 Enzyme Assay (Gly-Pro p-NA substrate, absorbance at 405 nm)). Details: 4 ng DPP-IV per well, 200 μl/well TRIS-HCl pH 8, 37° C., 1 hr; sample amounts (μg/well) per Table 1; Control 3 = 100% activity.
T1 construct: purchased PROSPEC ISRAEL ENZ 375
T1 sequence (P27487 whole entry): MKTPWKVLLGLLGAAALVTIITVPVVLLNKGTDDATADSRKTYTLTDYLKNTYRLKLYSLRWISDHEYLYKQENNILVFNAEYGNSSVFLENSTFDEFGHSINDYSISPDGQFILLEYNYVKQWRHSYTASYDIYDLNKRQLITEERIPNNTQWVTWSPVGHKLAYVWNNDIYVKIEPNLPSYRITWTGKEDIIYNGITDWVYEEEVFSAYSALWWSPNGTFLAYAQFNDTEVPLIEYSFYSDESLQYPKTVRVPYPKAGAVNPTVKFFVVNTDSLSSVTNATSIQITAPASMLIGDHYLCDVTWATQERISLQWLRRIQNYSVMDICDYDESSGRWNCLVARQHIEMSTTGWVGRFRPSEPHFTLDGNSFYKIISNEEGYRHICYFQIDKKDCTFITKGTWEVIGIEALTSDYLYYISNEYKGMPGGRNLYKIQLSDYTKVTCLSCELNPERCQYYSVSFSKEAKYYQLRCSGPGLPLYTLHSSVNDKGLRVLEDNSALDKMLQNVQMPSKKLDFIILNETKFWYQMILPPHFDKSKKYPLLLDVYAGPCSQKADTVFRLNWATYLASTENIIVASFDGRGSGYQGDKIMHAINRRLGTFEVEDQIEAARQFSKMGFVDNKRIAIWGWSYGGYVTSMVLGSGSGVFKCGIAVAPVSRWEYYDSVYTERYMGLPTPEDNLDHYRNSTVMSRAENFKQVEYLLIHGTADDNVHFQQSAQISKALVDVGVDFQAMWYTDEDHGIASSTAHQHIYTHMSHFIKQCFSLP
Assay type: biochemical
Experimental: A 96 well plate (NEST Biotechnology Co. Ltd, Cat No 701001) was taken. In each well of 96 well plate extract of Inula racemosa (as prepared above), Naringin (SIGMA, Cat. No: N1376) and the combination of extract of Inula racemosa and naringin were put in varied concentration as per Table 1. In each well, 4 ng of human recombinant Dipeptidyl peptidase-IV (DPP-IV) enzyme (PROSPEC ISRAEL, Cat. No. ENZ 375) was also added. After that, the final volume was made up to 200 μl/well using TRIS-HCl buffer of pH-8. The TRIS-HCl buffer was prepared by adding 2.42 g of TRIS (Tris hydroxyl methyl amino methane; Supplier: Sisco Research Laboratory ltd, Cat No 2044122) base, 0.372 g of EDTA (SIGMA, Cat No E6758) and 5.644 g of NaCl in 900 mL of autoclaved milli-Q water (Millipore® India) and stirred it till it get dissolved (˜30 minutes). After that the pH of the solution was adjusted to 8.0 using HCl acid and then the volume of the solution was made up to 1000 mL with autoclaved milli-Q water.
The enzyme and combinations of extract of Inula racemosa and naringin were mixed for 1 min using microplate reader (BIO-RAD LAB INDIA, Model No. 680) and incubated in an incubator (Thermo Scientific, Model 3111; conditions: at 37° C.) for 10 minutes. After that the enzymatic reaction was initiated by adding 10 μL/well of the 19 mM of substrate Glycine-Proline para nitroanilide (Gly-Pro p-NA) (this is equivalent to GLP-1). Gly-Pro-p NA is a universally accepted and commercially available substrate for the enzyme DPP-4, due to the lack of availability of commercially available chromogenic GLP-1. We have used Gly-Pro-p NA in the assay which is equivalent to GLP-1. […]
All the above reaction mixture was again incubated for 1 hr in the same incubator under the same condition. […] After this the absorbance was measured at a wavelength of 405 nm using microplate reader (BIO-RAD LAB INDIA, Model No. 680). […]
The % activities of the DPP-4 for the other samples were calculated using the following formula:
The % inhibitions by the samples were then calculated by subtracting the activity from 100.

% Inhibition	SMILES
18.11%	C[C@@H]1OC(OC2C(O)[C@H](O)C(CO)O[C@H]2Oc2cc(O)c3c(c2)O[C@H](c2ccc(O)cc2)CC3=O)[C@H](O)C(O)C1O (single isomer, unassigned) [D, 4,5,7-Trihydroxyflavanone 7-rhamnoglucoside]
18.54%	C[C@@H]1O[C@@H](O[C@H]2[C@H](Oc3cc(O)c4c(c3)O[C@H](c3ccc(O)cc3)CC4=O)O[C@H](CO)[C@@H](O)[C@@H]2O)[C@H](O)[C@H](O)[C@H]1O [B, 4,5,7-Trihydroxyflavanone 7-rhamnoglucoside]
18.43%	C[C@@H]1O[C@@H](O[C@H]2[C@H](Oc3cc(O)c4c(c3)O[C@H](c3ccc(O)cc3)CC4=O)O[C@H](CO)[C@@H](O)[C@@H]2O)[C@H](O)[C@H](O)[C@H]1O [C, 4,5,7-Trihydroxyflavanone 7-rhamnoglucoside]
